# In PubChem BioAssay (NCI):
#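 Cultured in 96-well plates, cells were exposed to test compound for 48 hours across five concentrations. Here, GI50 denotes the concentration required for 50% inhibition of growth. Definition used: TGI = concentration required for complete inhibition of growth.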
# Experiments:
# Experiment in all cases: NCI anticancer screen, dose series, 48 h
# [1] = system: DU-145 prostate
# [2] = system: OVCAR-5 ovarian
# [3] = system: HL-60(TB) leukemia
# [4] = system: SNB-19 CNS
# [5] = system: SK-MEL-2 melanoma
# [6] = system: RXF 393 renal
# [7] = system: NCI-H226 lung
# [8] = system: MDA-MB-231 breast
# [9] = system: UACC-62 melanoma
# [10] = system: PC-3 prostate
# [11] = system: UACC-257 melanoma
# [12] = system: A498 renal
# [13] = system: HCC-2998 colon
# [14] = system: HOP-62 NSCLC
# [15] = system: CAKI-1 renal
# [16] = system: 786-0 renal
# [17] = system: BT-549 breast
# [18] = system: COLO 205 colon
# [19] = system: SNB-75 CNS
# [20] = system: SN12C renal
# [21] = system: SK-OV-3 ovarian
# [22] = system: LOX IMVI melanoma
# [23] = system: HS 578T breast
# [24] = system: T-47D breast
# [25] = system: UO-31 renal
# [26] = system: SF-295 CNS
# [27] = system: NCI-H23 lung
# [28] = system: ACHN renal
# [29] = system: M14 melanoma
# [30] = system: TK-10 renal
# [31] = system: MDA-MB-435
# [32] = system: SR leukemia
# [33] = system: NCI-H460 lung
# [34] = system: HT29 colon
# [35] = system: SK-MEL-28 melanoma
# [36] = system: SF-268 CNS
# [37] = system: MCF7 breast
# [38] = system: NCI-H522 lung
# [39] = system: KM12 colon
# [40] = system: HCT-15 colon
# [41] = system: EKVX NSCLC
# [42] = system: NCI/ADR-RES ovarian
# [43] = system: SK-MEL-5 melanoma
# [44] = system: RPMI-8226 leukemia
# [45] = system: HOP-92 NSCLC
# [46] = system: SW-620 colon
# [47] = system: HCT-116 colon
# [48] = system: OVCAR-3 ovarian
# [49] = system: SF-539 CNS
# [50] = system: MALME-3M melanoma
# [51] = system: OVCAR-4 ovarian
# [52] = system: CCRF-CEM leukemia
# [53] = system: OVCAR-8 ovarian
# [54] = system: A549 NSCLC
# [55] = system: MOLT-4 leukemia
# [56] = system: U251 CNS
# [57] = system: IGROV1 ovarian
# [58] = system: K-562 leukemia
smiles,measurement,setting,value
CCCCCCCCCCCCCCCCSC(=NCC)NCC,GI50,[1],1620 nM
same,TGI,[1],2.98 µM
same,GI50,[2],3080 nM
same,TGI,[2],12.5 µM
same,GI50,[3],1450 nM
same,TGI,[3],3.12 µM
same,GI50,[4],3120 nM
same,TGI,[4],15.8 µM
same,GI50,[5],4.05 µM
same,TGI,[5],28.4 µM
same,GI50,[6],1630 nM
same,TGI,[6],3.47 µM
same,GI50,[7],2980 nM
same,TGI,[7],14.6 µM
same,GI50,[8],1310 nM
same,TGI,[8],2.69 µM
same,GI50,[9],1670 nM
same,TGI,[9],3100 nM
same,GI50,[10],1370 nM
same,TGI,[10],2.74 µM
same,GI50,[11],1870 nM
same,TGI,[11],3.75 µM
same,GI50,[12],6.66 µM
same,TGI,[12],34.3 µM
same,GI50,[13],1850 nM
same,TGI,[13],3280 nM
same,GI50,[14],1770 nM
same,TGI,[14],3180 nM
same,GI50,[15],1390 nM
same,TGI,[15],2780 nM
same,GI50,[16],3.49 µM
same,TGI,[16],20.8 µM
same,GI50,[17],6.16 µM
same,TGI,[17],46.9 µM
same,GI50,[18],1810 nM
same,TGI,[18],3.47 µM
same,GI50,[19],2010 nM
same,TGI,[19],12.9 µM
same,GI50,[20],1560 nM
same,TGI,[20],2980 nM
same,GI50,[21],3.36 µM
same,TGI,[21],11.6 µM
same,GI50,[22],1630 nM
same,TGI,[22],3000 nM
same,GI50,[23],2.8 µM
same,TGI,[23],8.84 µM
same,GI50,[24],1480 nM
same,TGI,[24],3.13 µM
same,GI50,[25],1620 nM
same,TGI,[25],4.09 µM
same,GI50,[26],1470 nM
same,TGI,[26],2880 nM
same,GI50,[27],2050 nM
same,TGI,[27],4990 nM
COc1ccc(O)c2c(=O)c3c(OC)cc4c(c3oc12)[C@@H]1C=CO[C@@H]1O4,GI50,[1],3030 nM
same,TGI,[1],> 34.9 µM
same,GI50,[28],321 nM
same,TGI,[28],5.64 µM
same,GI50,[8],7900 nM
same,TGI,[8],> 100 µM
same,GI50,[29],> 21.4 µM
same,TGI,[29],> 100000 nM
same,GI50,[10],> 21400 nM
same,TGI,[10],> 100 µM
same,GI50,[30],4.51 µM
same,TGI,[30],34.9 µM
same,GI50,[31],3300 nM
same,TGI,[31],> 100000 nM
same,GI50,[16],9.87 µM
same,TGI,[16],> 60.5 µM
same,GI50,[17],4.77 µM
same,TGI,[17],36.5 µM
same,GI50,[23],3.96 µM
same,TGI,[23],> 43 µM
same,GI50,[24],475 nM
same,TGI,[24],13.3 µM
same,GI50,[32],51.8 nM
COc1cc2c3c(n(CCCn4ccnc4)c(=O)c2cc1OC)-c1cc2c(cc1C3=O)OCO2,GI50,[33],< 10 nM
same,TGI,[33],> 21.7 µM
same,GI50,[1],< 10 nM
same,TGI,[1],> 100 µM
same,GI50,[34],94.8 nM
same,TGI,[34],> 100 µM
same,GI50,[2],141 nM
same,TGI,[2],8.33 µM
same,GI50,[3],< 10 nM
same,TGI,[3],< 0.0195 µM
same,GI50,[4],35.8 nM
same,TGI,[4],> 100 µM
same,GI50,[5],> 100 µM
same,TGI,[5],> 100 µM
same,GI50,[35],> 100 µM
same,TGI,[35],> 100 µM
same,GI50,[36],< 10 nM
same,TGI,[36],> 100 µM
same,GI50,[6],> 100000 nM
same,TGI,[6],> 100 µM
same,GI50,[37],< 12.9 nM
same,TGI,[37],> 100 µM
same,GI50,[7],< 13.5 nM
same,TGI,[7],0.16 µM
same,GI50,[38],369 nM
same,TGI,[38],> 100 µM
same,GI50,[39],142 nM
same,TGI,[39],9.32 µM
same,GI50,[40],824 nM
same,TGI,[40],> 100 µM
same,GI50,[28],< 10 nM
same,TGI,[28],> 100 µM
same,GI50,[8],347 nM
same,TGI,[8],3.57 µM
same,GI50,[41],1100 nM
same,TGI,[41],> 20.9 µM
same,GI50,[29],< 0.01 µM
same,TGI,[29],100 nM
same,GI50,[42],28.5 nM
same,TGI,[42],3.59 µM
same,GI50,[43],18.5 nM
same,TGI,[43],133 nM
same,GI50,[44],< 10 nM
same,TGI,[44],153 nM
same,GI50,[9],< 10 nM
same,TGI,[9],93.7 nM
same,GI50,[10],1280 nM
same,TGI,[10],> 100 µM
same,GI50,[11],1200 nM
same,TGI,[11],26.8 µM
same,GI50,[30],2.22 µM
same,TGI,[30],> 100 µM
same,TGI,[45],> 100 µM
same,GI50,[12],0.0203 µM
same,TGI,[12],0.0878 µM
same,GI50,[46],< 10.9 nM
same,TGI,[46],> 100 µM
same,GI50,[31],72.8 nM
same,TGI,[31],1670 nM
same,GI50,[13],< 10 nM
same,TGI,[13],34.5 nM
same,GI50,[14],< 10 nM
same,TGI,[14],153 nM
same,GI50,[15],< 10 nM
same,TGI,[15],27 nM
same,GI50,[47],< 10 nM
same,TGI,[47],148 nM
same,GI50,[16],< 0.01 µM
same,TGI,[16],0.0917 µM
same,GI50,[48],79.5 nM
same,TGI,[48],804 nM
same,GI50,[49],< 19.3 nM
same,GI50,[50],791 nM
same,TGI,[50],> 31.5 µM
same,GI50,[18],312 nM
same,TGI,[18],> 100 µM
same,GI50,[19],34.5 nM
same,TGI,[19],> 100 µM
same,GI50,[20],< 10 nM
same,TGI,[20],182 nM
same,GI50,[51],2900 nM
same,TGI,[51],> 100 µM
same,GI50,[22],< 10 nM
same,TGI,[22],171 nM
same,GI50,[52],< 10 nM
same,TGI,[52],< 10 nM
same,GI50,[53],280 nM
same,TGI,[53],> 100 µM
same,GI50,[23],> 100 µM
same,TGI,[23],> 100 µM
same,GI50,[24],< 10 nM
same,TGI,[24],< 0.01 µM
same,GI50,[25],< 26.9 nM
same,TGI,[25],> 48.3 µM
same,GI50,[54],52.8 nM
same,TGI,[54],> 100 µM
same,GI50,[32],< 10 nM
same,TGI,[32],< 10 nM
same,GI50,[55],< 10 nM
same,TGI,[55],< 10 nM
same,GI50,[56],< 10 nM
same,TGI,[56],1030 nM
same,GI50,[26],< 10 nM
same,TGI,[26],1210 nM
same,GI50,[57],959 nM
same,TGI,[57],> 100 µM
same,GI50,[58],12.2 nM
same,GI50,[27],16.2 nM
same,TGI,[27],164 nM
